This assay relates to human immortalized podocytes inducibly expressing APOL1 G2. As to the kind of experiment: APOL1 G2 podocyte cell rescue assay (Example B4). Type of assay: cell-based. The following applies: Homo sapiens, differentiated human podocytes, doxycycline-induced APOL1 G2, CellTiter-Glo; geometric mean of at least 2 runs; † = single run. The gist of the method: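 Differentiated hTERT-immortalized podocytes (clone D10) with doxycycline-inducible C-terminally HiBiT-tagged APOL1 G2, 6,000 cells/well, treated with doxycycline plus 8-point 3-fold compound series (0.4% DMSO) for 95 h at 37 °C. Viability by CellTiter-Glo luminescence; EC50 as geometric mean of ≥2 runs, each in duplicate.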
Background: ATP-based viability assays read luminescence as a measure of living cells.
Consider `CC[C@]1(O)C[C@@H](N2C(=O)CCc3cc(OCCN4CCC5(CC4)C(=O)Nc4ccc(Cl)cc45)cnc32)C1` (single isomer, unassigned) [Compound 321, 5-chloro-1′-[2-({7-oxo-8-[(cis)-3-ethyl-3-hydroxycyclobutyl]-5,6,7,8-tetrahydro-1,8-naphthyridin-3-yl}oxy)ethyl]-1,2-dihydrospiro[indole-3,4′-piperidin]-2-one], for which the midpoint of the response, the EC50, lay at 7.65 nM.
The value for `C[C@]1(O)C[C@@H](n2ncc3cc(OCCN4CCC5(CC4)C(=O)Nc4ccc(Cl)cc45)cnc32)C1` (single isomer, unassigned) [Compound 357, 5-chloro-1′-[2-({1-[(cis)-3-hydroxy-3-methylcyclobutyl]-1H-pyrazolo[3,4-b]pyridin-5-yl}oxy)ethyl]-1,2-dihydrospiro[indole-3,4′-piperidin]-2-one] was 4.04 nM.
As to `CC1(O)CC(c2ncc(OCCN3CCC4(CC3)C(=O)Nc3ccc(Cl)cc34)cn2)C1` (single isomer, unassigned) [Compound 393, 5-chloro-1′-[2-({2-[(cis) or (trans)-3-hydroxy-3-methylcyclobutyl]pyrimidin-5-yl}oxy)ethyl]-1,2-dihydrospiro[indole-3,4′-piperidin]-2-one], the EC50 (commonly the midpoint of the concentration-response curve) amounted to 23 nM. This EC50 is about 5.7-fold higher than that of the compound before.
For the compound `C[C@]1(O)C[C@H](n2ncc3cc(OCCN4CCC5(CC4)C(=O)Nc4ccc(Cl)cc45)cnc32)C1` (single isomer, unassigned) [Compound 408, 5-chloro-1′-[2-({1-[(trans)-3-hydroxy-3-methylcyclobutyl]-1H-pyrazolo[3,4-b]pyridin-5-yl}oxy)ethyl]-1,2-dihydrospiro[indole-3,4′-piperidin]-2-one], the response was half-maximal at 7.05 nM (EC50).
Turning to `CC(c1ncc(OCCN2CCC3(CC2)C(=O)Nc2ccc(Cl)cc23)cn1)S(C)(=O)=O` (stereo not shown) [Compound 1, 5-Chloro-1′-(2-{[2-(1-methanesulfonylethyl)pyrimidin-5-yl]oxy}ethyl)-1,2-dihydrospiro[indole-3,4′-piperidin]-2-one], the EC50 was 18.8 nM. Compared with the last compound, the EC50 is about 2.7-fold higher.
Turning to `CS(=O)(=O)C1(c2ncc(OCCN3CCC4(CC3)C(=O)Nc3ccc(Cl)cc34)cn2)CC1` [Compound 4, 5-chloro-1′-(2-{[2-(1-methanesulfonylcyclopropyl)pyrimidin-5-yl]oxy}ethyl)-1,2-dihydrospiro[indole-3,4′-piperidin]-2-one], the EC50 stood at 9.16 nM.
On to `CC(C)[C@]1(O)C[C@@H](N2C(=O)CCc3cc(OCCN4CCC5(CC4)C(=O)Nc4ccc(Cl)cc45)cnc32)C1` [Compound 317, 5-chloro-1′-[2-({7-oxo-8-[(cis)-3-hydroxy-3-(propan-2-yl)cyclobutyl]-5,6,7,8-tetrahydro-1,8-naphthyridin-3-yl}oxy)ethyl]-1,2-dihydrospiro[indole-3,4′-piperidin]-2-one], for which the midpoint of the response, the EC50, lay at 2.92 nM.
In turn, `C[C@]1(O)C[C@@H](n2c(=O)ccc3cc(OCCN4CCC5(CC4)C(=O)Nc4ccc(Cl)cc45)cnc32)C1` [Compound 323, 5-chloro-1′-[2-({7-oxo-8-[(cis)-3-hydroxy-3-methylcyclobutyl]-7,8-dihydro-1,8-naphthyridin-3-yl}oxy)ethyl]-1,2-dihydrospiro[indole-3,4′-piperidin]-2-one] gave an EC50 of 2.02 nM.
`CC(C)(CO)c1ncc(OCCN2CCC3(CC2)C(=O)Nc2ccc(Cl)cc23)cn1` [Compound 334, 5-chloro-1′-(2-{[2-(1-hydroxy-2-methylpropan-2-yl)pyrimidin-5-yl]oxy}ethyl)-1,2-dihydrospiro[indole-3,4′-piperidin]-2-one]: the EC50 was 9.58 nM.
As for `C[C@]1(O)C[C@@H](N2C(=O)Cc3cc(OCCN4CCC5(CC4)C(=O)Nc4ccc(Cl)cc45)cnc32)C1` [Compound 345, 5-chloro-1′-[2-({2-oxo-1-[(cis)-3-hydroxy-3-methylcyclobutyl]-1H,2H,3H-pyrrolo[2,3-b]pyridin-5-yl}oxy)ethyl]-1,2-dihydrospiro[indole-3,4′-piperidin]-2-one], the midpoint of the response, the EC50, lay at 15.8 nM.
Regarding `C[C@]1(O)C[C@@H](N2C(=O)Cc3cc(OCCN4CCC5(CC4)C(=O)Nc4ccc(C(F)F)cc45)cnc32)C1` [Compound 346, 5-(difluoromethyl)-1′-[2-({2-oxo-1-[(cis)-3-hydroxy-3-methylcyclobutyl]-1H,2H,3H-pyrrolo[2,3-b]pyridin-5-yl]oxy)ethyl]-1,2-dihydrospiro[indole-3,4′-piperidin]-2-one], the midpoint of the response, the EC50, lay at 38.8 nM.
As for `C[C@]1(O)C[C@@H](n2ccc3cc(OCCN4CCC5(CC4)C(=O)Nc4ccc(Cl)cc45)cnc32)C1` [Compound 349, 5-chloro-1′-[2-({1-[(cis)-3-hydroxy-3-methylcyclobutyl]-1H-pyrrolo[2,3-b]pyridin-5-yl}oxy)ethyl]-1,2-dihydrospiro[indole-3,4′-piperidin]-2-one], the EC50 was found to be 6.81 nM.
As for `C[C@]1(O)C[C@@H](n2ccc3cc(OCCN4CCC5(CC4)C(=O)Nc4ccc(C(F)F)cc45)cnc32)C1` [Compound 350, 5-(difluoromethyl)-1′-[2-({1-[(cis)-3-hydroxy-3-methylcyclobutyl]-1H-pyrrolo[2,3-b]pyridin-5-yl}oxy)ethyl]-1,2-dihydrospiro[indole-3,4′-piperidin]-2-one], the EC50 is 10.3 nM. Compared with the last compound, the EC50 is about 1.5-fold higher.
For the compound `C[C@]1(O)C[C@@H](n2cnc3cc(OCCN4CCC5(CC4)C(=O)Nc4ccc(Cl)cc45)cc(C(F)(F)F)c32)C1` [Compound 352, 5-chloro-1′-[2-({1-[(cis)-3-hydroxy-3-methylcyclobutyl]-7-(trifluoromethyl)-1H-1,3-benzodiazol-5-yl}oxy)ethyl]-1,2-dihydrospiro[indole-3,4′-piperidin]-2-one], the EC50 was determined as 1.12 nM.
Regarding `C[C@]1(O)C[C@@H](N2C(=O)NCc3cc(OCCN4CCC5(CC4)C(=O)Nc4ccc(Cl)cc45)cnc32)C1` [Compound 356, 5-chloro-1′-[2-({2-oxo-1-[(cis)-3-hydroxy-3-methylcyclobutyl]-1H,2H,3H,4H-pyrido[2,3-d]pyrimidin-6-yl}oxy)ethyl]-1,2-dihydrospiro[indole-3,4′-piperidin]-2-one], the EC50 was found to be 21.5 nM.
Regarding `CC(C)(O)c1ncc(OCCN2CCC3(CC2)C(=O)Nc2ccc(Cl)cc23)cc1C(F)(F)F` [Compound 371, 5-chloro-1′-(2-{[6-(2-hydroxypropan-2-yl)-5-(trifluoromethyl)pyridin-3-yl]oxy}ethyl)-1,2-dihydrospiro[indole-3,4′-piperidin]-2-one], the response was half-maximal at 1.1 nM (EC50).
`C[C@]1(O)C[C@@H](n2c(=O)oc3cc(OCCN4CCC5(CC4)C(=O)Nc4ccc(Cl)cc45)cnc32)C1` [Compound 394, 5-chloro-1′-[2-({2-oxo-3-[(cis)-3-hydroxy-3-methylcyclobutyl]-2H,3H-[1,3]oxazolo[4,5-b]pyridin-6-yl}oxy)ethyl]-1,2-dihydrospiro[indole-3,4′-piperidin]-2-one]: it took 16.9 nM to reach a half-maximal effect (EC50).
With `O=C1Nc2ccc(Cl)cc2C12CCN(CCOc1cnc(N3CC4(CC(O)C4)C3)nc1)CC2` [Compound 396, 5-chloro-1′-{2-[(2-{6-hydroxy-2-azaspiro[3.3]heptan-2-yl}pyrimidin-5-yl)oxy]ethyl}-1,2-dihydrospiro[indole-3,4′-piperidin]-2-one], the EC50 was found to be 18.6 nM.
On to `CCC1(O)CN(c2ncc(OCCN3CCC4(CC3)C(=O)Nc3ccc(Cl)cc34)cn2)C1` [Compound 397, 5-chloro-1′-(2-{[2-(3-ethyl-3-hydroxyazetidin-1-yl)pyrinlidin-5-yl]oxy}ethyl)-1,2-dihydrospiro[indole-3,4′-piperidin]-2-one], for which the EC50 was 14.3 nM. This EC50 and that of the compound before are within 1.5-fold of each other.
The compound `CC(CO)(c1ncc(OCCN2CCC3(CC2)C(=O)Nc2ccc(Cl)cc23)cc1C(F)(F)F)S(C)(=O)=O` (stereo not shown) [Compound 401, 5-chloro-1′-(2-{[6-(1-hydroxy-2-methanesulfonylpropan-2-yl)-5-(trifluoromethyl)pyridin-3-yl]oxy}ethyl)-1,2-dihydrospiro[indole-3,4′-piperidin]-2-one] registered an EC50 of 4.62 nM.
For the compound `CC(C)(O)c1ncc(OCCN2CCC3(CC2)C(=O)Nc2ccc(C#N)cc23)cc1C(F)(F)F` [Compound 411, 1′-(2-{[6-(2-hydroxypropan-2-yl)-5-(trifluoromethyl)pyridin-3-yl]oxy}ethyl)-2-oxo-1,2-dihydrospiro[indole-3,4′-piperidine]-5-carbonitrile], the EC50 amounted to 1.45 nM.
For the compound `[2H]C([2H])(Oc1cnc2c(c1)CCC(=O)N2[C@H]1C[C@@](C)(O)C1)C([2H])([2H])N1CCC2(CC1)C(=O)Nc1ccc(Cl)cc12` [Compound 426, 5-chloro-1′-[2-({7-oxo-8-[(cis)-3-hydroxy-3-methylcyclobutyl]-5,6,7,8-tetrahydro-1,8-naphthyridin-3-yl}oxy)(1,1,2,2-^2H4)ethyl]-1,2-dihydrospiro[indole-3,4′-piperidin]-2-one], a half-maximal effect (EC50) was put at 4.1 nM.
As to `C[C@]1(O)C[C@@H](n2cc3cc(OCCN4CCC5(CC4)C(=O)Nc4ccc(Cl)cc45)cc(C(F)(F)F)c3n2)C1` [Compound 427, 5-chloro-1′-[2-({2-[(cis)-3-hydroxy-3-methylcyclobutyl]-7-(trifluoromethyl)-2H-indazol-5-yl}oxy)ethyl]-1,2-dihydrospiro[indole-3,4′-piperidin]-2-one], the EC50 came to 1.95 nM.
`C[C@]1(O)C[C@@H](n2cc3cc(OCCN4CCC5(CC4)C(=O)Nc4ccc(C#N)cc45)cc(C(F)(F)F)c3n2)C1` [Compound 428, 2-oxo-1′-[2-({2-[(cis)-3-hydroxy-3-methylcyclobutyl]-7-(trifluoromethyl)-2H-indazol-5-yl}oxy)ethyl]-1,2-dihydrospiro[indole-3,4′-piperidine]-5-carbonitrile] gave an EC50 of 12.2 nM.
With `C[C@]1(O)C[C@@H](n2cnc3cc(OCCN4CCC5(CC4)C(=O)Nc4ccc(C#N)cc45)cc(C(F)(F)F)c32)C1` [Compound 433, 1′-(2-((1-((cis)-3-hydroxy-3-methylcyclobutyl)-7-(trifluoromethyl)-1H-benzo[d]imidazol-5-yl)oxy)ethyl)-2-oxospiro[indoline-3,4′-piperidine]-5-carbonitrile], the EC50 was 2.13 nM.
